{"source": "patent US9561186B2", "about": "“Method for improving the bioavailability of low aqueous solubility drugs” (PHARMATHEN S.A., priority 2012, dated 2017)", "assay": "Solubility of Tadalafil in 2-pyrrolidone", "format": "physicochemical", "settings": "compared with ethanol as solvent", "source_text": "Pyrroplus Manufacturing Process” as described above, overcomes several problems associated with the low solubility of Tadalafil. […] Conversely, using ethanol as solvent requires either increased amount of solvent or small quantity of Tadalafil, which both incommode the preparation of a pharmaceutical composition."}
{"smiles": "CN1CC(=O)N2[C@H](c3ccc4c(c3)OCO4)c3[nH]c4ccccc4c3C[C@@H]2C1=O", "note": "[Tadalafil]", "values": [{"measurement": "solubility when dissolved in 2-pyrrolidone", "value": "its solubility increases and reaches high values"}]}
